Experimental data from publication PMC8895403, “A Strategy to Select Macrocyclic Peptides Featuring Asymmetric Molecular Scaffolds as Cyclization Units by Phage Display” (Journal of the American Chemical Society, 2022).
Numbered stars: 1 amine (or outer) side, 2 acyl side, 3 side chain; on linkers, the order of the positions; unused ones are H or OH. Bridge positions count the residues as written; N and C are the ends. Square brackets hold non-standard residues; d marks the D form. Peptide text beside a SMILES is read from it. * marks the point of attachment. X1 = COc1ccc(CN([C@@H](C)C(=O)[*:2])[*:1])cc1N[*:3]; X3 = COc1ccc(CO)cc1NC(=O)C*; X2 = O=C(C[*:2])[*:1]

Columns and labels:
streptavidin [1] = biological target: T1, streptavidin (Streptomyces avidinii, UniProt P22629); assay: Biopanning of phages displaying SAV_1-3 against streptavidin (recovery rates from phage titers); format: binding; details: for recovery rate / retention after biopanning against streptavidin (in words): phages subjected to cyclization conditions, compared with linear and modified
Text: To independently verify that our strategy selects peptide binders, we first produced phages displaying SAV_1–3. Next, we performed the modification and cyclization reactions as described previously and determined phage titers before and after biopanning against streptavidin for phages featuring the linear precursor, the modified and cyclized peptides (Figure S12, see the Supporting Information for details). Consistent with the selection of peptide binders upon addition of our bifunctional cyclization units, the recovery rates for linear precursors were the lowest for all three peptides (Figure 6A). […] Featuring a reactive aldehyde moiety, this apparently higher affinity of the modified analogue of SAV_2 could be the result of the transient formation of an iminium ion via condensation with either the N-terminal amine or a lysine side chain of streptavidin.
Production of SAV_1-3 displaying bacteriophages: To validate the selection of cyclic peptide binders over their linear, and modified counterparts, phages displaying the peptide sequences of the […] most enriched hits SAV_1, SAV_2 and SAV_3 were panned against streptavidin either in linear, modified or cyclic peptide form. Phage titers pre- and post-streptavidin panning were determined and compared between all the samples.
In brief, 700 μL of densely grown E. coli TG1 overnight cultures harboring the […]
-fd plasmid (SAV_1), […]-fd plasmid (SAV_2) and
-fd plasmid (SAV_3) respectively, were used to inoculate 500 mL 2xYT-medium containing 30 μg/mL chloramphenicol. After incubation overnight (30 °C at 190 rpm) phage particles were purified and all cysteines were reduced with TCEP as described in Section
9. At this point the phage samples were split into 3 fractions of 2.5 mL. One sample was stored at 4 °C as ‘linear phage’ sample, the other two samples were modified with scaffold 3 (SAV_1 and SAV_2) or scaffold 4 (SAV_3) and purified as described in Section 9. […] Phage titers of these samples were determined ( Figure S12A) and all samples were diluted to approximately […] colony forming units using reduction buffer. […]

streptavidin [2] = biological target: T1, streptavidin; assay: HABA competition binding assay (competitive ligand-binding analysis)
Text: To pinpoint the binding mode of SAV_1–3 variants, we first synthesized the linear precursors and then prepared their modified and cyclized versions (Figure S13). […] To further elucidate the role of the free aldehyde for binding, we additionally prepared SAV_1–3 peptides that were modified with cyclization units bearing an alcohol moiety instead (Figures 6b and S13). […]
In vitro affinity measurements: To determine the affinity of the selected peptides for Streptavidin, a competitive binding experiment was performed similarly to previously described literature procedures.[7] In brief, for the competitive binding experiment, increasing amounts of peptide (final concentration 0.01 – 500 μM in 12.5% ACN + 0.1% TFA in PBS phosphate buffered saline (PBS, 137 mM NaCl, 2.7 mM KCl, 10 mM Na2HPO4, 2 mM […]
Streptavidin monomer (final concentration 1.5 mM/ 40 µM (SAV_1), 33 µM (SAV_2), 32 µM (SAV_3)). The reactions were allowed to reach equilibrium at room temperature (60 min.) and […]
IC50 values were obtained by fitting the average of three measurements to equation 1:
A = A + A500nm,max − A500nm,min (1) […]
where, A500nm is the measured absorbance at unbound peptide concentration, [L], and H is the Hill coefficient (H = 1 assumed for streptavidin-binding peptides). A500nm,min corresponds to the value measured in presence of 1 mM biotin and A500nm,max corresponds to absorbance values measured in absence of the peptide.
The Kd values for SAV_1_mod, SAV_1_cycl, and SAV_2_mod, SAV_1S_mod, and SAV_1S_cycl were obtained from their respective IC50 values using equation 2: […]

T1 sequence (P22629 25-183): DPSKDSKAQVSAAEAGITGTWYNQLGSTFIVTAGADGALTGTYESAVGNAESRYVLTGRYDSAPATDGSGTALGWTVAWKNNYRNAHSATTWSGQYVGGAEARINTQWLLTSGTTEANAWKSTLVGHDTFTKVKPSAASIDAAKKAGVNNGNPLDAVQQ

C[C@H](N)C(=O)N[C@@H](Cc1c[nH]c2ccccc12)C(=O)N[C@@H](Cc1c[nH]c2ccccc12)C(=O)N[C@H](C(=O)N[C@@H](CC(N)=O)C(=O)N[C@@H](CC(=O)O)C(=O)N[C@@H](Cc1ccccc1)C(=O)N[C@@H](CS)C(=O)N[C@@H](C)C(=O)N[C@@H](CS)C(=O)N[C@@H](C)C(N)=O)[C@@H](C)O [SAV_1]
recovery rate / retention after biopanning against streptavidin (in words) (streptavidin [1]): highest levels of retention

CSCC[C@H](NC(=O)CNC(=O)[C@@H](NC(=O)[C@H](CC(C)C)NC(=O)CNC(=O)[C@@H](NC(=O)[C@H](CC(N)=O)NC(=O)[C@H](CCCNC(=N)N)NC(=O)[C@H](C)N)C(C)C)C(C)C)C(=O)N[C@@H](CS)C(=O)N[C@@H](C)C(N)=O [SAV_3]
recovery rate / retention after biopanning against streptavidin (in words) (streptavidin [1]): highest levels of retention

C[C@H](N)C(=O)N[C@@H](Cc1c[nH]c2ccccc12)C(=O)N[C@@H](Cc1c[nH]c2ccccc12)C(=O)N[C@@H](CCC(=O)O)C(=O)N[C@@H](CC(=O)O)C(=O)N[C@@H](CCCNC(=N)N)C(=O)NCC(=O)N1CCC[C@H]1C(=O)N1CCC[C@H]1C(=O)N[C@@H](CS)C(=O)N[C@@H](C)C(N)=O [SAV_2]
recovery rate after biopanning against streptavidin (in words) (streptavidin [1]; phages with modified (aldehyde) peptide, compared with linear and cyclized): highest recovery rates | affinity for streptavidin in the competition assay (in words) (streptavidin [2]; form of the peptide as worded at the place): the cyclic peptide did not display any affinity

COc1ccc(CO)cc1NC(=O)CSC[C@H](NC(=O)[C@H](C)NC(=O)[C@@H]1CSCC(=O)Nc2cc(ccc2OC)CN[C@@H](C)C(=O)N[C@@H](Cc2c[nH]c3ccccc23)C(=O)N[C@@H](Cc2c[nH]c3ccccc23)C(=O)N[C@@H]([C@@H](C)O)C(=O)N[C@@H](CC(N)=O)C(=O)N[C@@H](CC(=O)O)C(=O)N[C@@H](Cc2ccccc2)C(=O)N1)C(=O)N[C@@H](C)C(N)=O [cyclic SAV_1] (H-[X1]WWTNDFCAC(X3)A-NH2; linker 1-8 via X2)
factor/fold advantage in Kd,app of cyclic peptide over aldehyde-modified peptide (streptavidin [2]; cyclic vs aldehyde-modified form of the same sequence): ~20

COc1ccc2cc1NC(=O)CSC[C@@H](C(=O)N[C@@H](C)C(N)=O)NC(=O)[C@H](Cc1ccccc1)NC(=O)[C@H](CC(=O)O)NC(=O)[C@H](CC(N)=O)NC(=O)[C@H]([C@@H](C)O)NC(=O)[C@H](Cc1c[nH]c3ccccc13)NC(=O)[C@H](Cc1c[nH]c3ccccc13)NC(=O)[C@H](C)NC2 [cyclic SAV_1S] (H-[X1]WWTNDFCA-NH2; linker 1-8 via X2)
Kd (streptavidin [2]; cyclic peptide, read-out: Kd,app): 0.164 ± 0.078 µM
